Where a name gives a salt, the structure may show the parent alone.

The test system of test [1] is IL-4 production. Kind of test: Test 1: inhibition of IL-4 production in human T-cell strain ATL-16T(-) stimulated with PMA (R&D Systems EIA). The test is classed as cell-based. The following applies: ATL-16T(-) 1×10^6 cells/0.5 ml/well, 20 nM PMA, 48 hours, read-out: Inhibition rate of IL-4 production; for inhibition at 10 µM: 10^-5 M; for inhibition at 1 µM: 10^-6 M; for inhibition at 0.1 µM: 10^-7 M; for inhibition at 0.01 µM: 10^-8 M. On the procedure:
Test 1: Test on the inhibition of IL-4 production
Into individual wells of a 48-well microplate, the human T-cell strain ATL-16T(-) was poured at a concentration of 1×10^6 cells/0.5 ml/well (n=3), followed by the addition of a stimulator (20 nM of PMA) and a medicament at the same time. The resulting mixture was incubated in 5% CO2 at 37° C. for 48 hours. After incubation, 100 μl of the supernatant were collected and subjected to measurement by a human IL-4 EIA kit (R&D SYSTEMS, INC.). The inhibition rate was calculated according to the following formula. [formula]

The subject of test [2] is IL-5 production. Description: Test 3: inhibition of IL-5 production in human PBMC stimulated with ConA. It counts as cell-based. As to conditions: 10^-6 M, 10 μg/ml ConA, 48 hours, read-out: Inhibition rate of IL-5 production. The procedure, abridged: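 Human PBMC from a normal volunteer, 1×10^6 cells/ml in AIM-V, stimulated with 10 μg/ml ConA alongside compound and incubated 48 h at 37 °C, 5% CO2. Supernatant IL-5 quantified by EIA; inhibition rate calculated from a formula.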

The subject of test [3] is IgE production. Kind of test: Test 4: inhibition of IgE production by spleen cells of orally treated sensitized mice. The test is classed as in vivo, Balb/c mouse. As to conditions: Mus musculus, po, 100 mg/kg orally once a day, Day 1 to Day 10, DNP-BSA 5 μg/ml, 24 hours, read-out: Inhibition rate of IgE production. On the procedure:
(§1) Test 4: Test on the inhibition of IgE production
(§2) To a Balb/c mouse, the DNP-labeled ascaris antigen (5 μg) and Alum (1 mg) were intraperitoneally administered on Day 1 and Day 6 to sensitize the mouse with the antibody. From Day 1 to Day 10, a medicament was orally administered at a dose of 100 mg/kg once a day. On Day 11, the mouse was subjected to splenectomy and the spleen so obtained was untangled into its cells. To 5×10^7 cells/ml of the spleen cells so obtained, DNP-BSA (5 μg/ml) was added, followed by incubation at 37° C. for 24 hours. After incubation, 100 μl of the supernatant were collected and subjected to the measurement an IgE measuring kit (Yamasa Co., Ltd.). In order to determine IgG1, IgG2a and IgM, the absorbance of the incubated supernatant was measured by the EIA method and provided for comparison. The inhibition rate of IgE production was calculated according to the below-described formula. Inhibition rates of the IgG1, IgG2a and IgM production were similarly calculated, respectively. [formula]

Test [4] deals with IgM production. Description: Test 4 (comparison): inhibition of IgM production. The test is classed as in vivo, Balb/c mouse. As to conditions: Mus musculus, po; 100 mg/kg orally once a day, Day 1 to Day 10; spleen cells, DNP-BSA 5 μg/ml, 24 hours; read-out: Inhibition rate of IgM production. On the procedure: as §1, §2
Test [5] deals with IgG1 production. Kind of test: Test 4 (comparison): inhibition of IgG1 production. The test is classed as in vivo, Balb/c mouse. As to conditions: Mus musculus, po; 100 mg/kg orally once a day, Day 1 to Day 10; spleen cells, DNP-BSA 5 μg/ml, 24 hours; read-out: Inhibition rate of IgG1 production. On the procedure:
as §1, §2

Test [6] deals with IgG2a production. Kind of test: Test 4 (comparison): inhibition of IgG2a production. It counts as in vivo, Balb/c mouse. As to conditions: Mus musculus, po; 100 mg/kg orally once a day, Day 1 to Day 10; spleen cells, DNP-BSA 5 μg/ml, 24 hours; read-out: Inhibition rate of IgG2a production. On the procedure: as §1, §2
Test [7] has as its system IL-4 production. Kind of test: Test 2: inhibition of IL-4 production in human T-cell strain ATL-16T(-) stimulated with PMA (Bio Source EIA). The test is classed as cell-based. The following applies: ATL-16T(-) 5×10^5 cells/0.5 ml/well, 20 nM PMA, 48 hours, read-out: Inhibition rate of IL-4 production; for inhibition at 10 µM: 10^-5 M; for inhibition at 1 µM: 10^-6 M; for inhibition at 0.1 µM: 10^-7 M; for inhibition at 0.01 µM: 10^-8 M. On the procedure:
Test 2: Test on the inhibition of IL-4 production
Into individual wells of a 48-well microplate, the human T-cell strain ATL-16T(-) was poured at a concentration of 5×10^5 cells/0.5 ml/well (n=3), followed by the addition of a stimulator (20 nM of PMA) and a medicament at the same time. The resulting mixture was incubated in 5% CO2 at 37° C. for 48 hours. After incubation, 50 μl of the supernatant were collected and subjected to measurement by a human IL-4 EIA kit (BIO SOURCE, INC.). The inhibition rate was calculated according to the following formula. [formula]

As usually defined, the inhibition is the relative decrease from the control value, in per cent. For `CCOC(=O)CCCOc1cc(/C=C/C(=O)c2ccccc2)ncc1OC` [Ex. 44, Ethyl 4-[5-methyoxy-2-(3-oxo-3-phenyl-1-propenyl)-4-pyridyloxy]butanoate], in test [1], the inhibition at 10 µM worked out at 89.1%. Also, the inhibition at 1 µM in test [1] is 86.1%; in test [2], 90.6%. Further, the inhibition at 0.1 µM in test [1] is 56.2%. In addition, in test [1], the inhibition at 0.01 µM came to 46.5%. Moreover, the inhibition at 100 mg/kg was 26.7% in test [3], -4.2% in test [4], 8% in test [5] and -2.2% in test [6].

Consider `COC(=O)c1ccc(COc2cc(/C=C/C(=O)c3ccccc3OC)ncc2OC)cc1` [Ex. 99], for which, in test [2], the inhibition at 1 µM is 80.3%. Moreover, the inhibition at 100 mg/kg is 34.8% in test [3], 8.5% in test [4], 6.1% in test [5] and 2.7% in test [6].

With `COc1cnc(/C=C/C(=O)c2ccccc2)cc1OC` [Ex. 1, 4,5-dimethoxy-2-(3-oxo-3-phenyl-1-propenyl)pyridine], in test [1], the inhibition at 10 µM came out at 97.5%. Besides, the inhibition at 1 µM in test [1] turned out to be 87.9%; in test [2] it was 95.3%. Also, in test [1], the inhibition at 0.1 µM was 80.3%. In test [1], the inhibition at 0.01 µM was determined as 59.9%. Besides, the inhibition at 100 mg/kg was 42% in test [3], -8% in test [4], 1.6% in test [5] and 4.6% in test [6].

For the compound `O=C(/C=C/c1cc(O)c(O)cn1)c1ccccc1` [Ex. 20, 4,5-Dihydroxy-2-(3-oxo-3-phenyl-1-propenyl)pyridine], the inhibition at 10 µM in test [1] came out at 97.9%. In addition, the inhibition at 1 µM in test [1] came to 96.4%; in test [2] it was 92.8%. In addition, the inhibition at 0.1 µM in test [1] was 90.6%. Also, in test [1], the inhibition at 0.01 µM is 84%. Also, the inhibition at 100 mg/kg in test [3] is 23.7%; in test [4] it was -6.2%; in test [5] it was 7.4%; in test [6], 1.3%.

`CCOC(=O)CCCOc1cc(/C=C/C(=O)c2cccnc2)ncc1OC` [Ex. 71, Ethyl 4-[5-methoxy-2-(3-oxo-3-(3-pyridyl)-1-propenyl)-4-pyridyloxy]butanoate dih ydrochloride]: in test [7], the inhibition at 10 µM is 81.2%, the inhibition at 1 µM worked out at 69.1%, the inhibition at 0.1 µM was 68.6% and the inhibition at 0.01 µM is 61.9%. Moreover, the inhibition at 1 µM in test [2] was 93.3%.

Turning to `CCOC(=O)CCCOc1cc(/C=C/C(=O)c2ccc(OC)cc2OC)ncc1OC` [Ex. 91, Ethyl 4-[5-methoxy-2-(3-(2,4-dimethoxyphenyl)-3-oxo-1-propenyl)-4-pyridyloxy]butanoate hydrochloride], in test [7], the inhibition at 10 µM worked out at 93.4%, the inhibition at 1 µM worked out at 62.3%, the inhibition at 0.1 µM is 62.2% and the inhibition at 0.01 µM was determined as 59.8%. Further, the inhibition at 1 µM in test [2] came out at 85.8%.

Regarding `CCCCCC(=O)/C=C/c1cc(OCCCCCC(=O)OC)c(OC)cn1` [Ex. 15, Methyl 6-[5-methoxy-2-(3-oxo-1-octenyl)-4-pyridyloxy]hexanoate], the inhibition at 10 µM in test [1] is 76.8%. Also, the inhibition at 1 µM in test [1] was 58.9%; in test [2], 79.2%. Moreover, the inhibition at 0.1 µM in test [1] is 55.9%. Besides, the inhibition at 0.01 µM in test [1] came out at 49.1%. Further, the inhibition at 100 mg/kg is 23.5% in test [3], -5.4% in test [4], 9.9% in test [5] and 4.6% in test [6].

As to `CCOC(=O)CCCOc1cc(/C=C/C(=O)c2ccccn2)ncc1OC` [Ex. 70, Ethyl 4-[5-methoxy-2-(3-oxo-3-(2-pyridyl)-1-propenyl]-4-pyridyloxy]butanoate dih ydrochloride], in test [7], the inhibition at 10 µM stood at 65.7%, the inhibition at 1 µM was 64.3%, the inhibition at 0.1 µM turned out to be 64% and the inhibition at 0.01 µM worked out at 60%. In addition, the inhibition at 1 µM in test [2] amounted to 81.4%.

As for `CCOC(=O)CCCCCCCCCCCOc1cc(/C=C/C(=O)c2ccccc2OC)ncc1OC` [Ex. 97, Ethyl 12-[5-methoxy-2-(3-(2-methoxyphenyl)-3-oxo-1-propenyl)-4-pyridyloxy]dodecanoate hydrochloride], the inhibition at 1 µM in test [2] worked out at 93.9%. Moreover, the inhibition at 100 mg/kg in test [3] is 30.5%; in test [4], 1.9%; in test [5] it was 5.6%; in test [6], -9.5%.

As for `CCOC(=O)CCCCCOc1cc(/C=C/C(=O)c2c(OC)cccc2OC)ncc1OC` [Ex. 85, Ethyl 6-[5-methoxy-2-(3-(2,6-dimethoxyphenyl)-3-oxo-1-propenyl)-4-pyridyloxy]hexanoate hydrochloride], in test [7], the inhibition at 10 µM worked out at 86.3%, the inhibition at 1 µM turned out to be 77.4%, the inhibition at 0.1 µM stood at 77.1% and the inhibition at 0.01 µM amounted to 73.9%. In test [2], the inhibition at 1 µM is 75.7%.

For `CCOC(=O)CCCCCOc1cc(/C=C/C(=O)c2ccsc2)ncc1OC` [Ex. 100, Ethyl 6-[5-methoxy-2-(3-oxo-3-(3-thienyl)-1-propenyl)-4-pyridyloxy]hexanoate hyd rochloride], the inhibition at 1 µM in test [2] was determined as 82.6%. Moreover, the inhibition at 100 mg/kg in test [3] was 23.9%; in test [4], -9%; in test [5] it was -4%; in test [6] it was -5.1%.

As to `COc1cnc(/C=C/C(=O)C2CCCCC2)cc1OC` [Ex. 73, 2-(3-Cyclohexyl-3-oxo-1-propenyl)-4,5-dimethoxypyridine hydrochloride], in test [7], the inhibition at 10 µM amounted to 86.9%, the inhibition at 1 µM turned out to be 51.3%, the inhibition at 0.1 µM came out at 21.4% and the inhibition at 0.01 µM stood at 11.9%. The inhibition at 1 µM in test [2] worked out at 82.3%.

As for `CCOC(=O)CCCCOc1cc(/C=C/C(=O)C2CCCCC2)ncc1OC` [Ex. 78, Ethyl 5-[2-(3-cyclohexyl-3-oxo-1-propenyl)-5-methoxy-4-pyridyloxy]pentanoate hydrochloride], in test [7], the inhibition at 10 µM was determined as 71.1%, the inhibition at 1 µM worked out at 70.8%, the inhibition at 0.1 µM was 68.5% and the inhibition at 0.01 µM is 68.2%. Further, in test [2], the inhibition at 1 µM is 63.1%.

Turning to `COc1cnc(/C=C/C(=O)c2c(Cl)cccc2Cl)cc1OC` [Ex. 54, 4,5-Dimethoxy-2-[3-(2,6-dichlorophenyl)-3-oxo-1-propenyl]pyridine], in test [7], the inhibition at 10 µM came out at 101%, the inhibition at 1 µM came out at 98.7%, the inhibition at 0.1 µM is 24.2% and the inhibition at 0.01 µM is 6.1%. Moreover, the inhibition at 1 µM in test [2] came out at 93.3%.

The values are drawn from patent publication US6046218A, “Pyridine derivative and medicament containing the same as an effective ingredient” (SS Pharmaceutical Co., Ltd., priority 1996, dated 2000).
